Results reported in US20010014364A1, “Use of stabilized bromine to improve quality and appearance of leafy vegetables or the like” (priority 1997, published 2001).

What was measured:
[1] = test system: aerobic plate count bacteria; experiment: Aerobic plate count (APC) bacteria on leaf lettuce after direct application of halogen solution and during storage; format: cell-based; conditions: for Log reduction of microbial populations from leaf lettuce surface / Percent reduction of microbial populations from leaf lettuce surface: APC, compared to unwashed control; for Aerobic plate count (APC) bacterial populations: storage at 4-6° C.
Procedure: (§1) Solutions of either stabilized sodium hyprobromite or industrial unstabilized sodium hypochlorite were added to “tap” water in order to achieve a 50, 100, or 200 ppm total halogen residual (as chlorine). The “tap” water contained calcium (90 ppm as CaCO3), “M” alkalinity (110 ppm as CaCO3) and magnesium (50 ppm as CaCO3) in deionized water. The “tap” water was buffered at pH 7.5 using borax and monobasic potassium phosphate. Solutions of stabilized sodium hypobromite or unstabilized sodium hypochlorite were applied directly to leaf lettuce by dipping the lettuce in the solutions for 3-minutes. Lettuce was immediately removed, drained for 1-minute, rinsed for 30-seconds with potable water, drained for 1-minute, and then spun dry with a bench-top lettuce spinner. Lettuce was analyzed for microbial populations remaining on the surface and 50-gram portions were stored at 4-6° C. for shelf-life evaluation. Shelf-life was visually judged for changes in color (browning) and odor.

yeast and mold = experiment: Yeast and mold (YM) count on leaf lettuce after direct application of halogen solution and during storage; format: cell-based; conditions: for Yeast and mold (YM) count populations: storage at 4-6° C.; for Log reduction of microbial populations from leaf lettuce surface / Percent reduction of microbial populations from leaf lettuce surface: YM, compared to unwashed control
Procedure: as §1

OCl [Bleach, sodium hypochlorite]
Log reduction of microbial populations from leaf lettuce surface ([1]; 50 ppm av. Cl2): 2.1 Log
Percent reduction of microbial populations from leaf lettuce surface ([1]; 50 ppm av. Cl2): 99.200%
Log reduction of microbial populations from leaf lettuce surface ([1]; 100 ppm av. Cl2): 2.1 Log
Percent reduction of microbial populations from leaf lettuce surface ([1]; 100 ppm av. Cl2): 99.120%
Log reduction of microbial populations from leaf lettuce surface ([1]; 200 ppm av. Cl2): 2.1 Log
Percent reduction of microbial populations from leaf lettuce surface ([1]; 200 ppm av. Cl2): 99.200%
Aerobic plate count (APC) bacterial populations ([1]; Day 0, 50 ppm av. Cl2): 5.3 Log10 CFU/g lettuce
Aerobic plate count (APC) bacterial populations ([1]; Day 0, 100 ppm av. Cl2): 5.3 Log10 CFU/g lettuce
Aerobic plate count (APC) bacterial populations ([1]; Day 0, 200 ppm av. Cl2): 5.3 Log10 CFU/g lettuce
Aerobic plate count (APC) bacterial populations ([1]; Day 1, 50 ppm av. Cl2): 5.4 Log10 CFU/g lettuce
Aerobic plate count (APC) bacterial populations ([1]; Day 1, 100 ppm av. Cl2): 5.3 Log10 CFU/g lettuce
Aerobic plate count (APC) bacterial populations ([1]; Day 1, 200 ppm av. Cl2): 5.5 Log10 CFU/g lettuce
Aerobic plate count (APC) bacterial populations ([1]; Day 2, 50 ppm av. Cl2): 6.4 Log10 CFU/g lettuce
Aerobic plate count (APC) bacterial populations ([1]; Day 2, 100 ppm av. Cl2): 6.6 Log10 CFU/g lettuce
Aerobic plate count (APC) bacterial populations ([1]; Day 2, 200 ppm av. Cl2): 7.0 Log10 CFU/g lettuce
Aerobic plate count (APC) bacterial populations ([1]; Day 4, 50 ppm av. Cl2): 6.5 Log10 CFU/g lettuce
Aerobic plate count (APC) bacterial populations ([1]; Day 4, 100 ppm av. Cl2): 6.6 Log10 CFU/g lettuce
Aerobic plate count (APC) bacterial populations ([1]; Day 4, 200 ppm av. Cl2): 7.5 Log10 CFU/g lettuce
Aerobic plate count (APC) bacterial populations ([1]; Day 5, 50 ppm av. Cl2): 6.0 Log10 CFU/g lettuce
Aerobic plate count (APC) bacterial populations ([1]; Day 5, 100 ppm av. Cl2): 6.4 Log10 CFU/g lettuce
Aerobic plate count (APC) bacterial populations ([1]; Day 5, 200 ppm av. Cl2): 6.6 Log10 CFU/g lettuce
Aerobic plate count (APC) bacterial populations ([1]; Day 6, 50 ppm av. Cl2): 6.6 Log10 CFU/g lettuce
Aerobic plate count (APC) bacterial populations ([1]; Day 6, 100 ppm av. Cl2): 6.6 Log10 CFU/g lettuce
Aerobic plate count (APC) bacterial populations ([1]; Day 6, 200 ppm av. Cl2): 8.1 Log10 CFU/g lettuce
Aerobic plate count (APC) bacterial populations ([1]; Day 7, 50 ppm av. Cl2): 7.2 Log10 CFU/g lettuce
Aerobic plate count (APC) bacterial populations ([1]; Day 7, 100 ppm av. Cl2): 7.2 Log10 CFU/g lettuce
Aerobic plate count (APC) bacterial populations ([1]; Day 7, 200 ppm av. Cl2): 7.7 Log10 CFU/g lettuce
Aerobic plate count (APC) bacterial populations ([1]; Day 8, 50 ppm av. Cl2): 7.7 Log10 CFU/g lettuce
Aerobic plate count (APC) bacterial populations ([1]; Day 8, 100 ppm av. Cl2): 8.1 Log10 CFU/g lettuce
Aerobic plate count (APC) bacterial populations ([1]; Day 8, 200 ppm av. Cl2): 7.6 Log10 CFU/g lettuce
Aerobic plate count (APC) bacterial populations ([1]; Day 9, 50 ppm av. Cl2): 7.6 Log10 CFU/g lettuce
Aerobic plate count (APC) bacterial populations ([1]; Day 9, 100 ppm av. Cl2): 7.4 Log10 CFU/g lettuce
Aerobic plate count (APC) bacterial populations ([1]; Day 9, 200 ppm av. Cl2): 7.5 Log10 CFU/g lettuce
Aerobic plate count (APC) bacterial populations ([1]; Day 10, 50 ppm av. Cl2): 7.6 Log10 CFU/g lettuce
Aerobic plate count (APC) bacterial populations ([1]; Day 10, 100 ppm av. Cl2): 7.0 Log10 CFU/g lettuce
Aerobic plate count (APC) bacterial populations ([1]; Day 10, 200 ppm av. Cl2): 8.6 Log10 CFU/g lettuce
Aerobic plate count (APC) bacterial populations ([1]; Day 11, 50 ppm av. Cl2): 8.0 Log10 CFU/g lettuce
Aerobic plate count (APC) bacterial populations ([1]; Day 11, 100 ppm av. Cl2): 7.9 Log10 CFU/g lettuce
Aerobic plate count (APC) bacterial populations ([1]; Day 11, 200 ppm av. Cl2): 8.5 Log10 CFU/g lettuce
Aerobic plate count (APC) bacterial populations ([1]; Day 12, 50 ppm av. Cl2): 8.3 Log10 CFU/g lettuce
Aerobic plate count (APC) bacterial populations ([1]; Day 12, 100 ppm av. Cl2): 8.0 Log10 CFU/g lettuce
Aerobic plate count (APC) bacterial populations ([1]; Day 12, 200 ppm av. Cl2): 8.4 Log10 CFU/g lettuce
Yeast and mold (YM) count populations (yeast and mold; Day 0, 50 ppm av. Cl2): 2.8 Log10 CFU/g lettuce
Yeast and mold (YM) count populations (yeast and mold; Day 0, 100 ppm av. Cl2): 2.9 Log10 CFU/g lettuce
Yeast and mold (YM) count populations (yeast and mold; Day 0, 200 ppm av. Cl2): 2.7 Log10 CFU/g lettuce
Yeast and mold (YM) count populations (yeast and mold; Day 1, 50 ppm av. Cl2): 2.7 Log10 CFU/g lettuce
Yeast and mold (YM) count populations (yeast and mold; Day 1, 100 ppm av. Cl2): 2.9 Log10 CFU/g lettuce
Yeast and mold (YM) count populations (yeast and mold; Day 1, 200 ppm av. Cl2): 2.7 Log10 CFU/g lettuce
Yeast and mold (YM) count populations (yeast and mold; Day 2, 50 ppm av. Cl2): 2.7 Log10 CFU/g lettuce
Yeast and mold (YM) count populations (yeast and mold; Day 2, 100 ppm av. Cl2): 2.8 Log10 CFU/g lettuce
Yeast and mold (YM) count populations (yeast and mold; Day 2, 200 ppm av. Cl2): 2.8 Log10 CFU/g lettuce
Yeast and mold (YM) count populations (yeast and mold; Day 4, 50 ppm av. Cl2): 4.5 Log10 CFU/g lettuce
Yeast and mold (YM) count populations (yeast and mold; Day 4, 100 ppm av. Cl2): 4.1 Log10 CFU/g lettuce
Yeast and mold (YM) count populations (yeast and mold; Day 4, 200 ppm av. Cl2): 4.4 Log10 CFU/g lettuce
Yeast and mold (YM) count populations (yeast and mold; Day 5, 50 ppm av. Cl2): 3.3 Log10 CFU/g lettuce
Yeast and mold (YM) count populations (yeast and mold; Day 5, 100 ppm av. Cl2): 3.5 Log10 CFU/g lettuce
Yeast and mold (YM) count populations (yeast and mold; Day 5, 200 ppm av. Cl2): 3.0 Log10 CFU/g lettuce
Yeast and mold (YM) count populations (yeast and mold; Day 6, 50 ppm av. Cl2): 3.8 Log10 CFU/g lettuce
Yeast and mold (YM) count populations (yeast and mold; Day 6, 100 ppm av. Cl2): 3.9 Log10 CFU/g lettuce
Yeast and mold (YM) count populations (yeast and mold; Day 6, 200 ppm av. Cl2): 4.5 Log10 CFU/g lettuce
Yeast and mold (YM) count populations (yeast and mold; Day 7, 50 ppm av. Cl2): 3.7 Log10 CFU/g lettuce
Yeast and mold (YM) count populations (yeast and mold; Day 7, 100 ppm av. Cl2): 4.5 Log10 CFU/g lettuce
Yeast and mold (YM) count populations (yeast and mold; Day 7, 200 ppm av. Cl2): 4.0 Log10 CFU/g lettuce
Yeast and mold (YM) count populations (yeast and mold; Day 8, 50 ppm av. Cl2): 4.4 Log10 CFU/g lettuce
Yeast and mold (YM) count populations (yeast and mold; Day 8, 100 ppm av. Cl2): 4.9 Log10 CFU/g lettuce
Yeast and mold (YM) count populations (yeast and mold; Day 8, 200 ppm av. Cl2): 4.4 Log10 CFU/g lettuce
Yeast and mold (YM) count populations (yeast and mold; Day 9, 50 ppm av. Cl2): 4.0 Log10 CFU/g lettuce
Yeast and mold (YM) count populations (yeast and mold; Day 9, 100 ppm av. Cl2): 4.6 Log10 CFU/g lettuce
Yeast and mold (YM) count populations (yeast and mold; Day 9, 200 ppm av. Cl2): 4.2 Log10 CFU/g lettuce
Yeast and mold (YM) count populations (yeast and mold; Day 10, 50 ppm av. Cl2): 4.1 Log10 CFU/g lettuce
Yeast and mold (YM) count populations (yeast and mold; Day 10, 100 ppm av. Cl2): 3.8 Log10 CFU/g lettuce
Yeast and mold (YM) count populations (yeast and mold; Day 10, 200 ppm av. Cl2): 4.5 Log10 CFU/g lettuce
Yeast and mold (YM) count populations (yeast and mold; Day 11, 50 ppm av. Cl2): 4.9 Log10 CFU/g lettuce
Yeast and mold (YM) count populations (yeast and mold; Day 11, 100 ppm av. Cl2): 4.5 Log10 CFU/g lettuce
Yeast and mold (YM) count populations (yeast and mold; Day 11, 200 ppm av. Cl2): 4.6 Log10 CFU/g lettuce
Yeast and mold (YM) count populations (yeast and mold; Day 12, 50 ppm av. Cl2): 5.5 Log10 CFU/g lettuce
Yeast and mold (YM) count populations (yeast and mold; Day 12, 100 ppm av. Cl2): 4.8 Log10 CFU/g lettuce
Yeast and mold (YM) count populations (yeast and mold; Day 12, 200 ppm av. Cl2): 4.8 Log10 CFU/g lettuce
Log reduction of microbial populations from leaf lettuce surface (yeast and mold; 50 ppm av. Cl2): 2.4 Log
Percent reduction of microbial populations from leaf lettuce surface (yeast and mold; 50 ppm av. Cl2): 99.647%
Log reduction of microbial populations from leaf lettuce surface (yeast and mold; 100 ppm av. Cl2): 2.3 Log
Percent reduction of microbial populations from leaf lettuce surface (yeast and mold; 100 ppm av. Cl2): 99.494%
Log reduction of microbial populations from leaf lettuce surface (yeast and mold; 200 ppm av. Cl2): 2.5 Log
Percent reduction of microbial populations from leaf lettuce surface (yeast and mold; 200 ppm av. Cl2): 97.729%
Yeasts and molds reduced (yeast and mold; lettuce washed with the halogen solution): about 2 log
